How the values were obtained:
[1] = system: Pseudomonas aeruginosa (ATCC 15442); experiment: Biocidal activity against simulated biofilm systems (alginate beads); type: cell-based
Source text: A biofilm simulation system, alginate beads, developed by the Biofilm Bozeman Institute Montana (Grobe, K. J, Zahller, J and Stewart P. S., 2002 in “Role of dose concentration in biocide efficacy against Pseudomonas aeruginosa Biofilms”, J. Industrial Microbiology & Biotechnology, vol. 29, pp 10-15), was used in order to evaluate the efficacy of bromine/urea against biofilm.
The biofilm simulation was created by entrapping bacteria in alginate gel beads. A plate of R2A agar was streaked with Pseudomonas aeruginosa (ATCC 15442) and incubated at 35° C. overnight. Buffer phosphate at pH 7.2 was used to scrap off the bacteria from the agar plate and to create a suspension. The bacterial suspension was mixed with an equal volume of an aqueous 4% sodium alginate solution, to make a final 2% alginate solution. The alginate and bacterial slurry were placed in a 50 ml syringe attached to a gauge needle (22), connected to a compressed air tank, allowing the syringe be pressurized. At 20 psig pressure a stream of small drops was forced out and dropped into a stirred solution of 50 mM CaCl2. The Ca^+2 cross linked the alginate, and semi solid beads with entrapped bacterial cells were formed. The beads were allowed to stir in the CaCl2 solution for about 20 minutes, and then rinsed in a dilute 5 mM CaCl2 solution. Several flasks containing 100 beads each were incubated overnight at 35° C. on a rotating shaker in a buffer solution (at pH 7) with 5 mM addition of CaCl2 to maintain the beads structure. The resulting beads diameter is about 2 mm
At the beginning of the experiment, the supernatant of the beads buffer suspension containing 5 mM CaCl2 was decanted and replaced by the 100 ml biocide solution with the required concentration. Chlorourea compositions prepared as in Example 1, and bromourera composition prepared as in Example 2, were used for the biocidal experiments. Urea-bromine compositions prepared by dissolving urea 15.02 g (250.3 mmol, 15% concentration) and 1.17 g Br2 (7.32 mmol, 1.17% concentration) in 84 g H2O (34.2:1 urea:Br2 molar ratio). After different interval contact times, 10 beads were removed and placed in a 5 g/l sodium thiosulfate solution containing 50 mM sodium citrate. The sodium citrate was used to dissolve the alginate gel and release the bacteria into the solution. The neutralizer-citrate solution was placed in the refrigerator for 2 hours, than diluted and placed on R2A agar plates using pour plate technique. The plates were incubated at 35° C. for 24-48 hours and counted. The efficacy and toxicity of the neutralizer were checked as well as a control experiment without biocide addition. Four concentrations (0.5, 1, 2.5 and 5 ppm) were tested at four different contact times (5, 15, 30, and 60 min). Table 1-2 describe the surviving colony forming units (CFU) of the bacteria after different biocides treatment at different contact times.

[2] = Stability of the prepared halourea solution; type: physicochemical; settings: aqueous chlorourea solution, 1.27% as total Cl2
Description: In a 250 ml round bottom flask equipped with a magnetic stir bar, a dropping funnel and a thermocouple, 46.04 g urea (Mw 60, 767 mmol) was dissolved in 35.3 g H2O, followed by the addition (upon cooling, exothermic) of 5.37 g of 32% HCl (Mw 36.64, 46.9 mmol). To the solution was added upon cooling 13.3 g of an aq. 10.7% NaOCl solution (wt % as active Cl2, 20 mmol) during 14 min. A slightly yellow solution was obtained retaining 1.27% Cl2 (wt % as total Cl2, iodometric titration, in relation to 1.5% wt % theoretical as Cl2). […] The solution was stable for at least 1 week.
In a 250 ml round bottom flask equipped with a magnetic stir bar, a dropping funnel and a thermocouple, 46 g urea (Mw 60, 767 mmol) was dissolved in 31.8 g H2O, followed by the addition (upon cooling, exothermic) of 8.96 g of 48% HBr (Mw 80.92, 53.15 mmol). To the solution was added upon cooling 13.4 g of an aq. 10.7% NaOCl solution (wt %, as total Cl2, 20.2 mmol) during 10 min. An orange solution was obtained retaining 1% Cl2 (wt %, as total Cl2, iodometric titration, in relation to 1.43% theoretical). […] The solution was stable for at least 24 hrs.

[3] = biocide 0.5 ppm as Cl2, contact time 0 (min)
[4] = biocide 0.5 ppm as Cl2, contact time 5 min
[5] = biocide 0.5 ppm as Cl2, contact time 15 min
[6] = biocide 0.5 ppm as Cl2, contact time 30 min
[7] = biocide 0.5 ppm as Cl2, contact time 60 min
[8] = biocide 1 ppm as Cl2, contact time 0 (min)
[9] = biocide 1 ppm as Cl2, contact time 5 min
[10] = biocide 1 ppm as Cl2, contact time 15 min
[11] = biocide 1 ppm as Cl2, contact time 30 min
[12] = biocide 1 ppm as Cl2, contact time 60 min
[13] = biocide 2.5 ppm as Cl2, contact time 0 (min)
[14] = biocide 2.5 ppm as Cl2, contact time 5 min
[15] = biocide 2.5 ppm as Cl2, contact time 15 min
[16] = biocide 2.5 ppm as Cl2, contact time 30 min
[17] = biocide 2.5 ppm as Cl2, contact time 60 min
[18] = biocide 5 ppm as Cl2, contact time 0 (min)
[19] = biocide 5 ppm as Cl2, contact time 5 min
[20] = biocide 5 ppm as Cl2, contact time 15 min
[21] = biocide 5 ppm as Cl2, contact time 30 min
[22] = biocide 5 ppm as Cl2, contact time 60 min

Compound | survival of bacteria (CFU) [1, 3] | survival of bacteria (CFU) [1, 4] | survival of bacteria (CFU) [1, 5] | survival of bacteria (CFU) [1, 6] | survival of bacteria (CFU) [1, 7] | survival of bacteria (CFU) [1, 8] | survival of bacteria (CFU) [1, 9] | survival of bacteria (CFU) [1, 10] | survival of bacteria (CFU) [1, 11] | survival of bacteria (CFU) [1, 12] | survival of bacteria (CFU) [1, 13] | survival of bacteria (CFU) [1, 14] | survival of bacteria (CFU) [1, 15] | survival of bacteria (CFU) [1, 16] | survival of bacteria (CFU) [1, 17] | survival of bacteria (CFU) [1, 18] | survival of bacteria (CFU) [1, 19] | survival of bacteria (CFU) [1, 20] | survival of bacteria (CFU) [1, 21] | survival of bacteria (CFU) [1, 22] | further results
NC(=O)NBr [bromourea] | 9.22 × 10^6 CFU | 8.10 × 10^6 CFU | 8.00 × 10^6 CFU | 3.50 × 10^6 CFU | 7.37 × 10^5 CFU | 9.22 × 10^6 CFU | 9.30 × 10^6 CFU | 1.73 × 10^6 CFU | 1.00 × 10^4 CFU | <1.00 CFU | 9.22 × 10^6 CFU | 2.72 × 10^6 CFU | 6.08 × 10^2 CFU | 5.00 × 10^1 CFU | <1.00 CFU | 9.22 × 10^6 CFU | 3.00 × 10^5 CFU | <1.00 CFU | <1.00 CFU | <1.00 CFU | –
NC(=O)NCl [chlorourea] | 2.28 × 10^7 CFU | 2.80 × 10^7 CFU | 2.43 × 10^7 CFU | 2.28 × 10^7 CFU | 1.00 × 10^7 CFU | 2.28 × 10^7 CFU | 1.89 × 10^7 CFU | 1.61 × 10^7 CFU | 1.66 × 10^7 CFU | 6.40 × 10^5 CFU | 2.28 × 10^7 CFU | 2.20 × 10^7 CFU | 1.42 × 10^7 CFU | 3.56 × 10^5 CFU | 1.58 × 10^3 CFU | 2.28 × 10^7 CFU | 2.16 × 10^7 CFU | 1.00 × 10^6 CFU | 3.25 × 10^3 CFU | <1.00 CFU | time for which the solution was stable [2]: at least 1 week

From patent US9133109B2, “Method for preparing bromourea” (Bromine Compounds Ltd., priority 2010, dated 2015)
